From patent US20080051419A1, “AMINE DERIVATIVES USEFUL AS ANTICANCER AGENTS” (PFIZER INC., priority 2006, published 2008)
Read-outs that look alike come from different tables or passages of the source.

Target: T1, Akt1 (Homo sapiens, UniProt P31749, S473D)
T1 construct: The version of Akt used in these studies lacks the pleckstrin homology (PH) domain
Assay: Akt1 kinase assay, fluorescence polarization (IMAP)
Assay type: biochemical
Protocol: The Akt1 kinase assay is based on the measurement of fluorescence polarization using IMAP technology (Molecular Devices Corporation #R8062). Two microliters of inhibitor compounds diluted to a concentration of 10 millimolar are added to column 2 of a polypropylene 96-well plate containing 98 microliters of 100% DMSO; the wells in columns 3-12 contain 60 microliters of 100% DMSO. The various test compounds are serially diluted 1:3 across the plate by pipetting 30 microliters of compounds into wells containing 60 microliters of 100% DMSO. Column 12 receives DMSO only and is used as a negative control for inhibition. The components of the wells are mixed and 15 microliters of each well are transferred to another 96-well plate already containing 60 microliters of reaction buffer (RB: 10 mM Tris-HCl, pH 7.5, 10 mM MgCl2, 0.1 mM EGTA, 0.01% Triton-X100 (Sigma #X-100), freshly added 1 mM DTT). After mixing, the […] reactions are assembled. First, five microliters of the above compound/reaction buffer mixture is transferred to the bottom of a 96-well black polystyrene reaction plate (Costar, #3694). Next, ten microliters of a solution containing 4 micromolar ATP and 40 nanomolar fluorescent-labeled Crosstide (Tamara-labeled […] peptide) are added. Then, 5 microliters (1.5 nanograms) of Akt protein in RB are added. The version of Akt used in these studies lacks the pleckstrin homology (PH) domain, and contains an aspartic acid residue in place of a serine residue in position 473 within the Akt1 hydrophobic motif. The Akt1 protein contains a polyhistidine tag at the amino terminus and is prephosphorylated on threonine at position 308 in order to activate latent kinase activity. Once the reaction components and inhibitors are assembled, the plates are gently tapped, covered with foil, and then incubated at ambient temperature for 30 minutes. IMAP beads (Molecular Devices) are then added (60 microliters of a 1:400 dilution of beads in RB). Plates are read on a Victor Plate Reader with the following settings: CW lamp filter: 544 nm, emission filter: 615 nm. Control values from wells lacking Akt protein are subtracted from the gross readings, and IC50 values are calculated using XLDA.

[1] = Table 1, concentration bins, read-out: Concentration Range at which exemplary compounds of formula I inhibit Akt kinase activity
[2] = Table 3, read-out: Avg Akt kinase, μM (50% inhibition)

T1 sequence (P31749 118-480 S473D limits assumed, species assumed): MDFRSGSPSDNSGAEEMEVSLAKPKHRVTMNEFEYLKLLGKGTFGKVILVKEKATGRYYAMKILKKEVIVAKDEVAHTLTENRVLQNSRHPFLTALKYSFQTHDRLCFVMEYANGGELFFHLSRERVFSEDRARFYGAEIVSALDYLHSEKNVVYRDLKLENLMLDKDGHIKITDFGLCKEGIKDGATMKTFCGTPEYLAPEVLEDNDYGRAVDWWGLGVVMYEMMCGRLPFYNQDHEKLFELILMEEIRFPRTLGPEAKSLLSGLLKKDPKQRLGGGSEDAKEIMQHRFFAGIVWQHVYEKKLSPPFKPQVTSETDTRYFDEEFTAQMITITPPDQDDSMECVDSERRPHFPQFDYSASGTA

## Cc1c[nH]c2ncnc(N3CCC(N)(CNc4cccc(F)c4F)C3)c12 (stereo not drawn) [Example 32, 3-{[(2,3-difluorophenyl)amino]methyl}-1-(5-methyl-7H-pyrrolo[2,3-d]pyrimidin-4-yl)pyrrolidin-3-amine]
[1]
  IC50: 0.0101 to 0.1 µM
[2]
  IC50: 0.0105 µM

## Cc1c[nH]c2ncnc(N3CCC(N)(CNc4cc(C(F)(F)F)ccc4Oc4ccc(Cl)cc4)C3)c12 (stereo not drawn) [Example 33, 3-({[2-(4-chlorophenoxy)-5-(trifluoromethyl)phenyl]amino}-methyl)-1-(5-methyl-7H-pyrrolo[2,3-d]pyrimidin-4-yl)pyrrolidin-3-amine]
[1]
  IC50: 0.00251 to 0.01 µM
[2]
  IC50: 0.00859 µM

## Cc1c[nH]c2ncnc(N3CCC(N)(CNc4ccc(F)cc4F)C3)c12 (stereo not drawn) [Example 34, 3-{[(2,4-difluorophenyl)amino]methyl}-1-(5-methyl-7H-pyrrolo[2,3-d]pyrimidin-4-yl)pyrrolidin-3-amine]
[1]
  IC50: 0.00251 to 0.01 µM
[2]
  IC50: 0.00771 µM

## Cc1c[nH]c2ncnc(N3CCC(N)(CNc4cccc5c4CCCC5)C3)c12 (stereo not drawn) [Example 35, 1-(5-methyl-7H-pyrrolo[2,3-d]pyrimidin-4-yl)-3-[(5,6,7,8-tetrahydronaphthalen-1-ylamino)methyl]pyrrolidin-3-amine]
[1]
  IC50: 0.00251 to 0.01 µM
[2]
  IC50: 0.00797 µM

## Cc1c[nH]c2ncnc(N3CC[C@](N)(CNc4cccc(C(F)(F)F)c4F)C3)c12 [Example 36, (3S)-3-({[2-fluoro-3-(trifluoromethyl)phenyl]amino}-methyl)-1-(5-methyl-7H-pyrrolo[2,3-d]pyrimidin-4-yl)pyrrolidin-3-amine]
[1]
  IC50: 0.00025 to 0.0025 µM
[2]
  IC50: 0.002 µM

## Cc1c[nH]c2ncnc(N3CC[C@](N)(CNc4cccc(F)c4)C3)c12 [Example 37, (3S)-3-{[(3-fluorophenyl)amino]methyl}-1-(5-methyl-7H-pyrrolo[2,3-d]pyrimidin-4-yl)pyrrolidin-3-amine]
[1]
  IC50: 0.00251 to 0.01 µM
[2]
  IC50: 0.00329 µM

## N#Cc1c[nH]c2ncnc(N3CCC(N)(CNc4cccc5c4CCCC5)C3)c12 (stereo not drawn) [Example 38, 4-{3-amino-3-[(5,6,7,8-tetrahydronaphthalen-1-ylamino)methyl]pyrrolidin-1-yl}-7H-pyrrolo[2,3-d]pyrimidine-5-carbonitrile]
[1]
  IC50: 0.00251 to 0.01 µM
[2]
  IC50: 0.00371 µM

## N#Cc1c[nH]c2ncnc(N3CCC(N)(CNc4ccc5c(c4)CNCC5)C3)c12 (stereo not drawn) [Example 39, 4-{3-amino-3-[(1,2,3,4-tetrahydroisoquinolin-7-ylamino)methyl]pyrrolidin-1-yl}-7H-pyrrolo[2,3-d]pyrimidine-5-carbonitrile]
[1]
  IC50: 0.101 to 10 µM
[2]
  IC50: 4.1 µM

## N#Cc1c[nH]c2ncnc(N3CCC(N)(CNc4cccc(C(F)(F)F)c4F)C3)c12 (stereo not drawn) [Example 40, 4-[3-amino-3-({[2-fluoro-3-(trifluoromethyl)phenyl]amino}-methyl)pyrrolidin-1-yl]-7H-pyrrolo[2,3-d]pyrimidine-5-carbonitrile]
[1]
  IC50: 0.00251 to 0.01 µM
[2]
  IC50: 0.00807 µM

## Cc1n[nH]c2ncnc(N3CCC(N)(CNc4cccc(Cl)c4F)C3)c12 (stereo not drawn) [Example 41, 3-{[(3-chloro-2-fluorophenyl)amino]methyl}-1-(3-methyl-1H-pyrazolo[3,4-d]pyrimidin-4-yl)pyrrolidin-3-amine]
[1]
  IC50: 0.0101 to 0.1 µM
[2]
  IC50: 0.0134 µM

## NC1(CNc2cccc(C(F)(F)F)c2)CCN(c2ccnc3[nH]ccc23)C1 (stereo not drawn) [Example 42, 1-(1H-pyrrolo[2,3-b]pyridin-4-yl)-3-({[3-(trifluoromethyl)phenyl]amino}-methyl)pyrrolidin-3-amine]
[1]
  IC50: 0.0101 to 0.1 µM
[2]
  IC50: 0.0354 µM

## Cc1c(Cl)cccc1NCC1(N)CCN(c2ncnc3[nH]cc(Cl)c23)C1 (stereo not drawn) [Example 43, 3-{[(3-chloro-2-methylphenyl)amino]methyl}-1-(5-chloro-7H-pyrrolo[2,3-d]pyrimidin-4-yl)pyrrolidin-3-amine]
[1]
  IC50: 0.00025 to 0.0025 µM
[2]
  IC50: 0.002 µM

## Cc1c[nH]c2ncnc(N3CCC(N)(CNc4cccc(-c5cnco5)c4)C3)c12 (stereo not drawn) [Example 44, 1-(5-methyl-7H-pyrrolo[2,3-d]pyrimidin-4-yl)-3-({[3-(1,3-oxazol-5-yl)phenyl]amino}methyl)pyrrolidin-3-amine]
[1]
  IC50: 0.101 to 10 µM
[2]
  IC50: 0.837 µM

## Cc1c[nH]c2ncnc(N3CCC(N)(CN(C)Cc4ccc(Cl)cc4)C3)c12 (stereo not drawn) [Example 45, 3-{[(4-chlorobenzyl)(methyl)-amino]methyl}-1-(5-methyl-7H-pyrrolo[2,3-d]pyrimidin-4-yl)pyrrolidin-3-amine]
[1]
  IC50: 0.101 to 10 µM
[2]
  IC50: 0.144 µM

## Cc1c[nH]c2ncnc(N3CCC(N)(CNCCN(C)C)C3)c12 (stereo not drawn) [Example 46, N′-{[3-amino-1-(5-methyl-7H-pyrrolo[2,3-d]pyrimidin-4-yl)pyrrolidin-3-yl]methyl}-N,N-dimethylethane-1,2-diamine]
[1]
  IC50: 0.101 to 10 µM
[2]
  IC50: 0.125 µM

## Cc1c[nH]c2ncnc(N3CCC(N)(CN(CCN(C)C)Cc4ccccc4)C3)c12 (stereo not drawn) [Example 47, N-{[3-amino-1-(5-methyl-7H-pyrrolo[2,3-d]pyrimidin-4-yl)pyrrolidin-3-yl]methyl}-N-benzyl-N′,N′-dimethylethane-1,2-diamine]
[1]
  IC50: 0.101 to 10 µM
[2]
  IC50: 0.172 µM

## Cc1c[nH]c2ncnc(N3CCC(N)(CN(C)c4ccccc4)C3)c12 (stereo not drawn) [Example 48, 3-{[methyl(phenyl)amino]methyl}-1-(5-methyl-7H-pyrrolo[2,3-d]pyrimidin-4-yl)pyrrolidin-3-amine]
[1]
  IC50: 0.101 to 10 µM
[2]
  IC50: 0.12 µM

## Cc1c[nH]c2ncnc(N3CCC(N)(CN4CCCc5ccccc54)C3)c12 (stereo not drawn) [Example 49, 3-(3,4-dihydroquinolin-1(2H)-ylmethyl)-1-(5-methyl-7H-pyrrolo[2,3-d]pyrimidin-4-yl)pyrrolidin-3-amine]
[1]
  IC50: 0.101 to 10 µM
[2]
  IC50: 0.131 µM

## CCN(CC1(N)CCN(c2ncnc3[nH]cc(C)c23)C1)c1ccccc1 (stereo not drawn) [Example 50, 3-{[ethyl(phenyl)amino]methyl}-1-(5-methyl-7H-pyrrolo[2,3-d]pyrimidin-4-yl)pyrrolidin-3-amine]
[1]
  IC50: 0.101 to 10 µM
[2]
  IC50: 0.116 µM

## Cc1c[nH]c2ncnc(N3CCC(N)(CN4CCc5ccccc54)C3)c12 (stereo not drawn) [Example 51, 3-(2,3-dihydro-1H-indol-1-ylmethyl)-1-(5-methyl-7H-pyrrolo[2,3-d]pyrimidin-4-yl)pyrrolidin-3-amine]
[1]
  IC50: 0.0101 to 0.1 µM
[2]
  IC50: 0.0362 µM

## Cc1c[nH]c2ncnc(N3CCC(N)(CNc4ccc(Cl)nn4)C3)c12 (stereo not drawn) [Example 52, N-{[3-amino-1-(5-methyl-7H-pyrrolo[2,3-d]pyrimidin-4-yl)pyrrolidin-3-yl]methyl}-6-chloropyridazin-3-amine]
[1]
  IC50: 0.0101 to 0.1 µM
[2]
  IC50: 0.082 µM

## Cc1cc(CNC[C@@]2(N)CCN(c3ncnc4[nH]cc(C)c34)C2)no1 [Example 53, (3S)-3-({[(5-methylisoxazol-3-yl)methyl]amino}methyl)-1-(5-methyl-7H-pyrrolo[2,3-d]pyrimidin-4-yl)pyrrolidin-3-amine]
[1]
  IC50: 0.0101 to 0.1 µM
[2]
  IC50: 0.0293 µM

## Cc1c[nH]c2ncnc(N3CCC(N)(CNCC4CC4)C3)c12 (stereo not drawn) [Example 54, 3-{[(cyclopropylmethyl)amino]methyl}-1-(5-methyl-7H-pyrrolo[2,3-d]pyrimidin-4-yl)pyrrolidin-3-amine]
[1]
  IC50: 0.101 to 10 µM
[2]
  IC50: 0.739 µM

## CN(CC1(N)CCN(c2ncnc3[nH]cc(Cl)c23)C1)c1ccc(Cl)cc1 (stereo not drawn) [Example 55, 3-{[(4-chlorophenyl)(methyl)-amino]methyl}-1-(5-chloro-7H-pyrrolo[2,3-d]pyrimidin-4-yl)pyrrolidin-3-amine]
[1]
  IC50: 0.0101 to 0.1 µM
[2]
  IC50: 0.012 µM
